Measurements taken from patent US12497663B2, “Method of monitoring treatment” (LDN Pharma Limited, priority 2019, dated 2025).

Assays:
CD3+ cells = assay: Gene expression in CD3+ cells from CD14-ve PBMCs cultured with naltrexone (Illumina biochips); format: cell-based, human; settings: 4 h
Experimental: The RNA was then extracted from the cells using Trizol then isopropanol. The expression of the genes was measured using Illumina platform with biochips surveying the total human genome. […] The ratio of treated:untreated was calculated and the 25% change from untreated considered relevant.

[1] = test system: CD3+/CD8+ cells (killer T-cells); assay: CD69 expression of PBMCs cultured with LDN or NTX (flow cytometry); format: cell-based; settings: 48 h
Experimental: Peripheral-blood mononuclear cells were isolated from whole blood or from the residue product of leukoreduction of whole blood from pathologically healthy donors using Histopaque-1077. The mononuclear fraction was harvested and red blood cell contamination removed by incubation in hypotonic ammonium chloride. Cells were washed in phosphate buffered saline (PBS) and platelet contamination removed by centrifugation at 200 g for 10 min, re-suspended at a concentration of 1×10^6 ml in RPMI-1640 culture medium. […] Peripheral-blood mononuclear cells were washed twice in wash buffer (PBS containing 1% (v/v) FBS and 0.09% (v/v) NaN3), and stained for 30 min at 4° C. with the relevant and stated antibodies for assessment of immune cell profile. Cells were washed in wash buffer and fixed in 4% paraformaldehyde for 20 min at 4° C. Expressions of the surface markers were analysed using a BD Science LSR II Flow Cytometer with dedicated proprietary software.
The activation state of CD3+ cells is indicated by CD69 expression; higher levels of CD69 expression correlate with increased CD3+ activation. CD3+ cells are T cell co-receptors that help to activate both the cytotoxic T cell (CD8+ naive T cells) and also T helper cells (CD4+ naive T cells). […] Thus, when LDN has completed its priming and the gene expressions are as determined in Example 1, the immune system is suitably boosted.

[2] = ratio treated:untreated, 10 nM naltrexone
[3] = ratio treated:untreated, 10 uM naltrexone

## O=C1CC[C@@]2(O)[C@H]3Cc4ccc(O)c5c4[C@@]2(CCN3CC2CC2)[C@H]1O5 [NTX, morphinan-6-one,17-(cyclopropylmethyl)-4,5-epoxy-3,14-dihydroxy-(5a)]
CD3+ cells; 10 uM naltrexone
  ALDH4A1 N/U-score: o (no change)
  ASAP1 N/U-score: o (no change)
  BCLAF1 N/U-score: o (no change)
  BIRC3 N/U-score: o (no change)
  CASZ1 N/U-score: o (no change)
  CDC42SE2 N/U-score: o (no change)
  CDKN2AIP N/U-score: o (no change)
  DRAP1 N/U-score: D (reduction)
  DYNLL2 N/U-score: o (no change)
  EIF2S3 N/U-score: o (no change)
  EIF3E N/U-score: o (no change)
  EIF3M N/U-score: o (no change)
  EIF4B N/U-score: o (no change)
  EZR N/U-score: o (no change)
  FRG1 N/U-score: o (no change)
  H3F3A N/U-score: o (no change)
  HIST1H4C N/U-score: o (no change)
  HPCAL1 N/U-score: o (no change)
  ITGB2 N/U-score: o (no change)
  KCTD6 N/U-score: o (no change)
  LSM5 N/U-score: o (no change)
  MAP4K1 N/U-score: D (reduction)
  MORF4L1 N/U-score: o (no change)
  MTF1 N/U-score: o (no change)
  MYLK N/U-score: o (no change)
  NUCB1 N/U-score: o (no change)
  OR10A6 N/U-score: o (no change)
  PAH N/U-score: o (no change)
  PDCD4 N/U-score: o (no change)
  PECI N/U-score: o (no change)
  PRPF8 N/U-score: o (no change)
  PSME2 N/U-score: o (no change)
  PVRL2 N/U-score: o (no change)
  RASAL3 N/U-score: D (reduction)
  S100A6 N/U-score: D (reduction)
  SH3BGRL3 N/U-score: o (no change)
  SPOCK2 N/U-score: o (no change)
  WDR75 N/U-score: o (no change)
  YWHAZ N/U-score: D (reduction)
CD3+ cells; [2]
  ACTB LDN/UN: 1.560
  ALDH4A1 LDN/UN: 1.691
  ASAP1 LDN/UN: 0.701
  BCLAF1 LDN/UN: 0.653
  BIRC3 LDN/UN: 0.703
  CASZ1 LDN/UN: 1.775
  CDC42SE2 LDN/UN: 0.590
  CDKN2AIP LDN/UN: 0.702
  DRAP1 LDN/UN: 1.253
  DYNLL2 LDN/UN: 0.702
  EIF2S3 LDN/UN: 0.702
  EIF3E LDN/UN: 0.647
  EIF3M LDN/UN: 0.613
  EIF4B LDN/UN: 1.576
  EZR LDN/UN: 1.563
  FRG1 LDN/UN: 0.614
  H3F3A LDN/UN: 0.632
  HIST1H4C LDN/UN: 0.667
  HPCAL1 LDN/UN: 1.515
  ITGB2 LDN/UN: 1.528
  KCTD6 LDN/UN: 0.700
  LSM5 LDN/UN: 0.639
  MAP4K1 LDN/UN: 1.294
  MORF4L1 LDN/UN: 0.698
  MTF1 LDN/UN: 0.676
  MYLK LDN/UN: 1.659
  NUCB1 LDN/UN: 1.483
  OR10A6 LDN/UN: 1.570
  PAH LDN/UN: 1.687
  PDCD4 LDN/UN: 0.672
  PECI LDN/UN: 0.675
  PRPF8 LDN/UN: 1.543
  PSME2 LDN/UN: 0.700
  PVRL2 LDN/UN: 1.483
  RASAL3 LDN/UN: 1.365
  S100A6 LDN/UN: 1.397
  SH3BGRL3 LDN/UN: 1.479
  SPOCK2 LDN/UN: 1.487
  WDR75 LDN/UN: 0.705
  YWHAZ LDN/UN: 1.287
CD3+ cells; [3]
  ACTB NTX/UN: 1.241
  ALDH4A1 NTX/UN: 1.184
  ASAP1 NTX/UN: 0.826
  BCLAF1 NTX/UN: 0.800
  BIRC3 NTX/UN: 0.918
  CASZ1 NTX/UN: 1.130
  CDC42SE2 NTX/UN: 0.796
  CDKN2AIP NTX/UN: 0.766
  DRAP1 NTX/UN: 0.723
  DYNLL2 NTX/UN: 0.865
  EIF2S3 NTX/UN: 0.756
  EIF3E NTX/UN: 0.910
  EIF3M NTX/UN: 0.757
  EIF4B NTX/UN: 1.123
  EZR NTX/UN: 1.079
  FRG1 NTX/UN: 0.773
  H3F3A NTX/UN: 0.758
  HIST1H4C NTX/UN: 0.836
  HPCAL1 NTX/UN: 0.849
  ITGB2 NTX/UN: 0.942
  KCTD6 NTX/UN: 0.774
  LSM5 NTX/UN: 0.839
  MAP4K1 NTX/UN: 0.726
  MORF4L1 NTX/UN: 0.772
  MTF1 NTX/UN: 0.771
  MYLK NTX/UN: 1.241
  NUCB1 NTX/UN: 1.148
  OR10A6 NTX/UN: 1.235
  PAH NTX/UN: 1.183
  PDCD4 NTX/UN: 0.779
  PECI NTX/UN: 1.043
  PRPF8 NTX/UN: 1.174
  PSME2 NTX/UN: 0.877
  PVRL2 NTX/UN: 1.102
  RASAL3 NTX/UN: 0.713
  S100A6 NTX/UN: 0.655
  SH3BGRL3 NTX/UN: 1.224
  SPOCK2 NTX/UN: 1.194
  WDR75 NTX/UN: 0.830
  YWHAZ NTX/UN: 0.736
[1]; 10 nM naltrexone (LDN)
  CD69 expression in CD3+/CD8+ cells: increased
[1]; 10 uM naltrexone (NTX)
  CD69 expression in CD3+/CD8+ cells: did not increase
